Assay results as given in ChEMBL document CHEMBL5120900, “Structure-Based Discovery of a Series of NSD2-PWWP1 Inhibitors” (J Med Chem, 2022).

How the values were obtained:
[1] = target: T1, Histone-lysine N-methyltransferase NSD2 (Homo sapiens, UniProt O96028); experiment: Binding affinity to N-terminal His6/Sumo-tagged NSD2 PWWP1 domain (211 to 350 residues) (unknown origin) expressed in Escherichia coli BL21 (DE3) using ATKAARKSAPATGGV-Lys (me)2-KPHRYRPG polypeptide as substrate incubated for 3 hrs by HTRF assay
T1 sequence (O96028 whole entry): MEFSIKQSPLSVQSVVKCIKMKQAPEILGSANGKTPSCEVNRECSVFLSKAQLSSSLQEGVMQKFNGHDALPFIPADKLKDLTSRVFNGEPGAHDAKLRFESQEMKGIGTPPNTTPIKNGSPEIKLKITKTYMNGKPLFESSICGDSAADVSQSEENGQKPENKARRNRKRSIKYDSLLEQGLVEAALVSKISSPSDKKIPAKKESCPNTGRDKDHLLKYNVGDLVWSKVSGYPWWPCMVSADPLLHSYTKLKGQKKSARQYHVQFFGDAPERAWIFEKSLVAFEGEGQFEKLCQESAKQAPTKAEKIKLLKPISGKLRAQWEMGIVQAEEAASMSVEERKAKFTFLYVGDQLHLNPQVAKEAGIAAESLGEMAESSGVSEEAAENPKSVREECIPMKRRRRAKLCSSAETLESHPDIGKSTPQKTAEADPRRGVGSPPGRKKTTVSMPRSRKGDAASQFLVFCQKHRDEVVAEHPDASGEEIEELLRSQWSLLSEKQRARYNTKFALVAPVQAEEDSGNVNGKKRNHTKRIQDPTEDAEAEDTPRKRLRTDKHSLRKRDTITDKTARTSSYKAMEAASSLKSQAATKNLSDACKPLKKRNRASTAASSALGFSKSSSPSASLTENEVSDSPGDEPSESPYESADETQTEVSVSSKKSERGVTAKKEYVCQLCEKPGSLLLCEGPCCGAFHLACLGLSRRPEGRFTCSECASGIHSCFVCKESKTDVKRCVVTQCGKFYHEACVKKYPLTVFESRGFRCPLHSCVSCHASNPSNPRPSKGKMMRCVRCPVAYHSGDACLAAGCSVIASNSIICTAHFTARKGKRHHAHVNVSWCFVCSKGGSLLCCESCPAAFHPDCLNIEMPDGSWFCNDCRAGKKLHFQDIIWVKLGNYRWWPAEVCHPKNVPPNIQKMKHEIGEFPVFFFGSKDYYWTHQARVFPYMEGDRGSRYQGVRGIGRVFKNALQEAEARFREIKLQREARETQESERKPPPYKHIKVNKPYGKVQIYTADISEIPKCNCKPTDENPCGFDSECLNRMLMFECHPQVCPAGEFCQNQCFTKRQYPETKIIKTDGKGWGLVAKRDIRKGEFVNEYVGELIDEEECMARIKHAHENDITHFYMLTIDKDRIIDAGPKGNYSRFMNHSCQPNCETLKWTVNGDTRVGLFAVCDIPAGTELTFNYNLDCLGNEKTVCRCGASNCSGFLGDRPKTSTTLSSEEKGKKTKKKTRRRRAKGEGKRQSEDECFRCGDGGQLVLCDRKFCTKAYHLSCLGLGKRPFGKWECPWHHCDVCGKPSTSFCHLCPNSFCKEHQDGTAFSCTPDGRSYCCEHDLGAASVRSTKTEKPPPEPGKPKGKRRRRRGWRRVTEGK

[2] = target: T2, Histone-lysine N-methyltransferase NSD3 (Homo sapiens, UniProt Q9BZ95); experiment: Binding affinity to NSD3 (unknown origin) assessed as dissociation constant
T2 sequence (Q9BZ95 whole entry): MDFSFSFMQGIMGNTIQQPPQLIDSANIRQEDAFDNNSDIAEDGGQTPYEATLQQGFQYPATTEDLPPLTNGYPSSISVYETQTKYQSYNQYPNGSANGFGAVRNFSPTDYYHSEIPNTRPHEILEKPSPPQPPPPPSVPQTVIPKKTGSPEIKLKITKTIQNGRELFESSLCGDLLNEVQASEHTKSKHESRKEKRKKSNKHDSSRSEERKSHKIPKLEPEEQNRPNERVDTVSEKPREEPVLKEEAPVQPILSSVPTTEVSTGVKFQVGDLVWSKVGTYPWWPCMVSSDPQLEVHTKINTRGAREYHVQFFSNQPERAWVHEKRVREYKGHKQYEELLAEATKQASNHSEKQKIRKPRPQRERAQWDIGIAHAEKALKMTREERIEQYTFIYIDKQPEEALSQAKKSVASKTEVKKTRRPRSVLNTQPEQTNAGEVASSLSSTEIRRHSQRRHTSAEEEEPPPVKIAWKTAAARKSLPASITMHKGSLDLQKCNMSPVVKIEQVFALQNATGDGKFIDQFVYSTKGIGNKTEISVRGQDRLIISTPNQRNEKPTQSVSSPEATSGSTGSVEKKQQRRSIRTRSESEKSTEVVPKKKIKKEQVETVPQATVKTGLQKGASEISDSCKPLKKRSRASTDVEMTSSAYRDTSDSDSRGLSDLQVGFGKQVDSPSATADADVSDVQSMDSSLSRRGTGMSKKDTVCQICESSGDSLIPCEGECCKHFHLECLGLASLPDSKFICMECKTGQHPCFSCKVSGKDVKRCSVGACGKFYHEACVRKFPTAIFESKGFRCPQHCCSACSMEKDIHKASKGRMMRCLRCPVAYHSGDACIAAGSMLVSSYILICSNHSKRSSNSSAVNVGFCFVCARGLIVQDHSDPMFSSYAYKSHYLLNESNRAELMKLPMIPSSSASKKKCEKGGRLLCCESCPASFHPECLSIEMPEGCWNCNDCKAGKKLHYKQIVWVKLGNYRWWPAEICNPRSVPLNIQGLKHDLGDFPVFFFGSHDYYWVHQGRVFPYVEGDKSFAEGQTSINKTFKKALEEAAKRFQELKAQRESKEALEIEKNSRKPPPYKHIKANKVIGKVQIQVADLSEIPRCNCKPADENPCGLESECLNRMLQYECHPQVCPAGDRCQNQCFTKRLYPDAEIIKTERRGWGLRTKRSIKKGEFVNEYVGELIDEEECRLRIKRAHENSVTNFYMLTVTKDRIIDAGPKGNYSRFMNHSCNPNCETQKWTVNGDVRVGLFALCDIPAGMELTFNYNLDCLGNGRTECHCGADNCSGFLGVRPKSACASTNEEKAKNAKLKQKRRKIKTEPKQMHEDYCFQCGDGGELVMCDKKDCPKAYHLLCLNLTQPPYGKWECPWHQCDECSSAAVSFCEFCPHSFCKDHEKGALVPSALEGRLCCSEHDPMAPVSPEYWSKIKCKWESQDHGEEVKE

| SMILES | IC50 [1] | Kd [2] |
| --- | --- | --- |
| Cc1cc(CN)cc(C)c1-c1ncn(C)c1-c1ccc(C#N)c(F)c1 | 2.91 µM | – |
| Cc1cc(CNC(=O)OC(C)(C)C)cc(C)c1-c1ncn(C)c1-c1ccc(C#N)c2ccccc12 | 1.67 µM | – |
| COc1cc(-c2c(-c3c(C)cc(CN)cc3C)ncn2C)ccc1C#N | 10.9 µM | – |
| Cc1cc(CN2CCCC2)cc(C)c1-c1ncn(C)c1-c1ccc(C#N)c2ccccc12 | 2.07 µM | – |
| Cc1cc(CNCCN)cc(C)c1-c1ncn(C)c1-c1ccc(C#N)c2ccccc12 | 0.62 µM | – |
| Cc1cc(CO)cc(C)c1-c1ncn(C)c1-c1ccc(C#N)c2ccccc12 | 13.8 µM | – |
| Cc1cc(CN)cc(C)c1-c1ncn(C)c1-c1ccc(C#N)c(N)c1 | 8.78 µM | – |
| Cc1cc(CN)ccc1-c1ncn(C)c1-c1ccc(C#N)cc1 | 4.68 µM | – |
| Cc1cc(C#N)cc(C)c1-c1ncn(C)c1-c1ccc(C#N)c2ccccc12 | > 20 µM | – |
| Cc1cc(CN2CCC(N(C)C)C2)cc(C)c1-c1ncn(C)c1-c1ccc(C#N)c2ccccc12 (configuration not stated) | 2 µM | – |
| Cc1cc(N)cc(C)c1-c1ncn(C)c1-c1ccc(C#N)c2ccccc12 | 10.6 µM | – |
| Cc1cc(C=O)cc(C)c1-c1ncn(C)c1-c1ccc(C#N)c2ccccc12 | > 21 µM | – |
| Cc1cc(CNC2CC2)cc(C)c1-c1ncn(C)c1-c1ccc(C#N)c2ccccc12 | 0.43 µM | – |
| CNc1cc(-c2c(-c3c(C)cc(CN)cc3C)ncn2C)ccc1C#N | > 20 µM | – |
| Cn1cnc(-c2ccc(CN)cc2F)c1-c1ccc(C#N)cc1 | 11.2 µM | – |
| CCNCc1cc(C)c(-c2ncn(C)c2-c2ccc(C#N)c3ccccc23)c(C)c1 | 0.7 µM | – |
| Cc1cc(CN)cc(C)c1-c1ncn(C)c1-c1ccc(C#N)c2ccccc12 | 0.52 µM | – |
| Cc1cc(CN)cc(C)c1-c1ncn(C)c1-c1ccc(C#N)c(C(F)(F)F)c1 | 15.4 µM | – |
| Cc1cc(CN)cc(C)c1-c1ncn(C)c1-c1ccc(C#N)c(Cl)c1 | 5.03 µM | – |

| SMILES | IC50 [1] | Kd [2] |
| --- | --- | --- |
| Cc1cc(CN)cc(C)c1-c1ncn(C)c1-c1ccc(C#N)cc1 | 0.57 µM | – |
| Cc1cc(CN2CCN(C(=O)OC(C)(C)C)CC2)cc(C)c1-c1ncn(C)c1-c1ccc(C#N)c2ccccc12 | 8.07 µM | – |
| Cc1cc(CN2CCC(NC(=O)OC(C)(C)C)CC2)cc(C)c1-c1ncn(C)c1-c1ccc(C#N)c2ccccc12 | 8.05 µM | – |
| Cn1cnc(-c2ccc(CN)cc2)c1-c1ccc(C#N)cc1 | 13.9 µM | – |
| Cc1cc(NC(=O)OC(C)(C)C)cc(C)c1-c1ncn(C)c1-c1ccc(C#N)c2ccccc12 | > 25 µM | – |
| CCC(O)c1cc(C)c(-c2ncn(C)c2-c2ccc(C#N)c3ccccc23)c(C)c1 (configuration not stated) | > 24 µM | – |
| Cc1cc(CN)cc(C)c1-c1ncn(C)c1-c1ccc(C#N)c2ncccc12 | 1.58 µM | – |
| N#Cc1ccc(C(=O)N(Cc2cccs2)C2CC2)cc1 | – | 0.091 µM |
| Cc1cc(CNC(C)(C)C)cc(C)c1-c1ncn(C)c1-c1ccc(C#N)c2ccccc12 | 0.64 µM | – |
| CCC(=O)c1cc(C)c(-c2ncn(C)c2-c2ccc(C#N)c3ccccc23)c(C)c1 | > 22 µM | – |
| Cc1cc(CN2CCNCC2)cc(C)c1-c1ncn(C)c1-c1ccc(C#N)c2ccccc12 | 1.89 µM | – |
| COc1cc(CN)ccc1-c1ncn(C)c1-c1ccc(C#N)cc1 | 12 µM | – |
| Cc1cc(CN2CCC(O)C2)cc(C)c1-c1ncn(C)c1-c1ccc(C#N)c2ccccc12 (configuration not stated) | 0.52 µM | – |
| Cn1cnc(-c2ccc(CN)cc2Cl)c1-c1ccc(C#N)cc1 | 6.11 µM | – |
| Cc1cc(CN2CCOCC2)cc(C)c1-c1ncn(C)c1-c1ccc(C#N)c2ccccc12 | 3.84 µM | – |
| COc1cc(CN)cc(OC)c1-c1ncn(C)c1-c1ccc(C#N)cc1 | 4.44 µM | – |
| Cc1cc(CN2CCCCC2)cc(C)c1-c1ncn(C)c1-c1ccc(C#N)c2ccccc12 | 1.49 µM | – |
| Cn1cnc(-c2ccc(CN)cc2C(F)(F)F)c1-c1ccc(C#N)cc1 | 6.01 µM | – |
